Where a name gives a salt, the structure may show the parent alone.
Key:
HCT116 = assay: Inhibition of Cell Proliferation (methylene blue or CellTiter-Glo); type: cell-based; conditions: Homo sapiens, HCT-116; HCT116 cell growth, seventy two hours post-treatment, 10% fetal bovine serum
Procedure: Exponentially growing cell lines of different tumor origins, cultured in appropriate media containing 10% fetal bovine serum at 37° C. in a 5% CO2 incubator were plated at low density (less than 2000 cells/well) in 96-well plates. Twenty four hours post-plating, cells were treated with different concentrations of test compounds ranging from 10 uM to 0.04 nM. Several wells were left untreated as a control. Seventy two hours post-treatment, cell numbers were determined using different techniques; 100 μl per well of methylene blue (Sigma M9140) (0.5% in 50:50 Ethanol:water), or 50-100 ul per well of CellTiter-Glo (Promega #G7573). For methylene blue staining, stain was incubated at room temperature for 30 minutes before plates were rinsed and dye solubilized in 1% N-lauroyl sarcosine, sodium salt, (Sigma L5125, in PBS). Plates were read on a microplate reader, measuring the OD at 620 nm. For CellTiter-Glo, plates were incubated at room temperature for 15 minutes and the chemiluminescent signal was read on the Victor V or Envison 2100 reader.
Percent inhibition of cell growth was expressed as percent proliferation relative to 100% proliferation (control). Concentration of test compound that inhibited 50% of cell growth (IC50) was determined by 4 parameter fit of data using XLfit, (value of no cell control was substracted from all samples for background). The data are shown in Table 1 and Table 2 below and represent a compilation of several different experiments each performed using the general parameters outlined above, although minor variations may have been employed in some instances. In Table 1 and Table 2, +=IC50>1+M; ++=IC50 0.5-1 μM: +++=IC50<0.5 μM.

PLK1 kinase domain = molecular target: T1, PLK1 kinase domain (Homo sapiens, UniProt P53350); assay: Assay for Inhibition of PLK1 (SPA kinase assay); type: biochemical; conditions: 2 nM PLK1 kinase domain, 1 μM ATP, 1 μM substrate peptide, 22° C.; read-out: PLK1 pIC50 (converted)
T1 construct: 6xHis (leader MKKGHHHHHHD) (N); made in house; host or cells: baculovirus infected T. ni cells
Procedure: 6× N-terminal His-tagged PLK kinase domain (amino acids 21-346 preceded by MKKGHHHHHHD) SEQ ID: No. 1. was prepared from baculovirus infected T. ni cells under polyhedrin promoter control. All procedures were performed at 4° C. Cells were lysed in 50 mM HEPES, 200 mM NaCl, 50 mM imidazole, 5% glycerol; pH 7.5. The homogenate was centrifuged at 14K rpm in a SLA-1500 rotor for 1 hr and the supernatant filtered through a 1.2 micron filter. The supernatant was loaded onto a Nickel chelating Sepharose (Amersham Pharmacia) column and washed with lysis buffer. Protein was eluted using 20%, 30% and 100% buffer B steps where buffer B was 50 mM HEPES, 200 mM NaCl, 300 mM imidazole, 5% glycerol; pH 7.5. Fractions containing PLK were determined by SDS-PAGE. Fractions containing PLK were diluted five-fold with 50 mM HEPES, 1 mM DTT, 5% glycerol; pH 7.5, then loaded on an SP Sepharose (Amersham Pharmacia) column. After washing the column with 50 mM HEPES, 1 mM DTT, 5% glycerol; pH 7.5, PLK was step eluted with 50 mM HEPES, 1 mM DTT, 500 mM NaCl; 5% glycerol; pH 7.5. PLK was concentrated using a 10 kDa molecular weight cutoff membrane and then loaded onto a Superdex 200 gel filtration (Amersham Pharmacia) column equilibrated in 25 mM HEPES, 1 mM DTT, 500 mM NaCl, 5% glycerol; pH 7.5. Fractions containing PLK were determined by SDS-PAGE. PLK was pooled, aliquoted and stored at −80° C. Samples were quality controlled using mass spectrometry, N-terminal sequencing and amino acid analysis.
All measurements were obtained under conditions where signal production increased linearly with time and enzyme. Test compounds were added to white 384-well assay plates (0.1 μL for 10 μL and some 20 μL assays, 1 μL for some 20 μL assays) at variable known concentrations in 100% DMSO. DMSO (I-5% final, as appropriate) and EDTA (65 mM in reaction) were used as controls. Reaction Mix was prepared as follows at 22° C.: • 25 mM HEPES, pH 7.2 • 15 mM MgCl2 • 1 μM ATP • 0.05 μCi/well ^33P-γ ATP (10 Ci/mMol) • 1 μM substrate peptide (Biotin-Ahx-SFNDTLDFD) SEQ ID: No. 2. • 0.15 mg/mL BSA • 1 mM DTT • 2 nM PLK1 kinase domain (added last)
Reaction Mix (10 or 20 μL) was quickly added to each well immediately following addition of enzyme via automated liquid handlers and incubated 1-1.5 h at 22° C. The 20 μL enzymatic reactions were stopped with 50 μL of stop mix (50 mM EDTA, 4.0 mg/mL Streptavidin SPA beads in Standard Dulbecco's PBS (without Mg^2+ and Ca^2+), 50 μM ATP) per well. The 10 μL reactions were stopped with 10 μL of stop mix (50 mM EDTA, 3.0 mg/mL Streptavidin-coupled SPA Imaging Beads (“LeadSeeker”) in Standard Dulbecco's PBS (without Mg^2+ and Ca^2+), 50 μM ATP) per well. Plates were sealed with clear plastic seals, spun at 500×g for 1 min or settled overnight, and counted in Packard TopCount for 30 seconds/well (regular SPA) or imaged using a Viewlux imager (LeadSeeker SPA). Signal above background (EDTA controls) was converted to percent inhibition relative to that obtained in control (DMSO-only) wells.

T1 sequence (P53350 21-346): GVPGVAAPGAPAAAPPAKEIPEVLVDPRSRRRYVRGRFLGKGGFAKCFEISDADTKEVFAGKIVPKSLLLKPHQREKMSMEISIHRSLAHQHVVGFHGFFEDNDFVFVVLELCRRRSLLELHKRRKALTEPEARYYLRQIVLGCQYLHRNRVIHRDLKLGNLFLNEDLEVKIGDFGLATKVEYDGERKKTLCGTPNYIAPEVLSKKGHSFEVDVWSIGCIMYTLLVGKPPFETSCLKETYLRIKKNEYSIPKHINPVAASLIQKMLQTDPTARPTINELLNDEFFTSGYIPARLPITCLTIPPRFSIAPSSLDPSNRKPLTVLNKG

Row | Structure (SMILES) | IC50 (HCT116) [nM] | IC50 (PLK1 kinase domain) [nM]
1 | COc1cc2ncn(-c3cc(O[C@H](C)c4cc(C(=O)NCCN(C)C)ccc4Cl)c(C(N)=O)s3)c2cc1OC [Example 1, 5-[5,6-Bis(methyloxy)-1H-benzimidazol-1-yl]-3-({(1R)-1-[2-chloro-5-({[2-(dimethylamino)ethyl]amino}carbonyl)phenyl]ethyl}oxy)-2-thiophenecarboxamide formate] |  | 100 to 1000
2 | C[C@@H](Oc1cc(-n2cnc3cc(-c4cnn(C)c4)ccc32)sc1C(N)=O)c1cccc(OCCCO)c1Cl [Example 5] | < 500 | < 100
3 | C[C@@H](Oc1cc(-n2cnc3ccccc32)sc1C(N)=O)c1cccc(OCCN)c1Cl [Example 4, 3-[((1R)-1-{3-[(2-Aminoethyl)oxy]-2-chlorophenyl}ethyl)oxy]-5-(1H-benzimidazol-1-yl)-2-thiophenecarboxamide] | < 500 | < 100
4 | COc1cc2ncn(-c3cc(O[C@H](C)c4cccc(OCCN)c4Cl)c(C(N)=O)s3)c2cc1OC [Example 3, 3-[((1R)-1-{3-[(2-aminoethyl)oxy]-2-chlorophenyl}ethyl)oxy]-5-[5,6-bis(methyloxy)-1H-benzimidazol-1-yl]-2-thiophenecarboxamide] | < 500 | < 100
5 | COc1cc2ncn(-c3cc(O[C@H](C)c4cccc(NCCO)c4Cl)c(C(N)=O)s3)c2cc1OC [Example 2, 5-[5,6-Bis(methyloxy)-1H-benzimidazol-1-yl]-3-[((1R)-1-{2-chloro-3-[(2-hydroxyethyl)amino]phenyl}ethyl)oxy]-2-thiophenecarboxamide] | < 500 | 

The remaining lines, values ahead:

Row | IC50 (HCT116) [nM] | IC50 (PLK1 kinase domain) [nM] | Structure (SMILES)
6 | < 500 | < 100 | C[C@@H](Oc1cc(-n2cnc3cc(-c4cnn(C)c4)ccc32)sc1C(N)=O)c1cccc(OCCCN(C)C)c1Cl [Example 9, 3-{[(1R)-1-(2-chloro-3-{[3-(dimethylamino)propyl]oxy}phenyl)ethyl]oxy}-5-[5-(1-methyl-1H-pyrazol-4-yl)-1H-benzimidazol-1-yl]-2-thiophenecarboxamide]
7 | < 500 | < 100 | C[C@@H](Oc1cc(-n2cnc3cc(-c4cnn(C)c4)ccc32)sc1C(N)=O)c1cccc(OCCN(C)C)c1Cl [Example 8, 3-{[(1R)-1-(2-chloro-3-{[2-(dimethylamino)ethyl]oxy}phenyl)ethyl]oxy}-5-[5-(1-methyl-1H-pyrazol-4-yl)-1H-benzimidazol-1-yl]-2-thiophenecarboxamide]
8 | < 500 | < 100 | C[C@@H](Oc1cc(-n2cnc3cc(-c4cnn(C)c4)ccc32)sc1C(N)=O)c1cccc(OCCN)c1Cl [Example 7, 3-[((1R)-1-{3-[(2-aminoethyl)oxy]-2-chlorophenyl}ethyl)oxy]-5-[5-(1-methyl-1H-pyrazol-4-yl)-1H-benzimidazol-1-yl]-2-thiophenecarboxamide hydrochloride]
9 | < 500 | < 100 | C[C@@H](Oc1cc(-n2cnc3cc(-c4cnn(C)c4)ccc32)sc1C(N)=O)c1cccc(OCCO)c1Cl [Example 6, 3-[((1R)-1-{2-chloro-3-[(2-hydroxyethyl)oxy]phenyl}ethyl)oxy]-5-[5-(1-methyl-1H-pyrazol-4-yl)-1H-benzimidazol-1-yl]-2-thiophenecarboxamide]

Source: patent US20090326029A1, “NON-CYCLIC SUBSTITUTED BENZIMIDAZOLE THIOPHENE BENZYL ETHER COMPOUNDS” (priority 2006, published 2009)
